Results as given in PMC6177136, “Hybrid topoisomerase I and HDAC inhibitors as dual action anticancer agents” (PLoS ONE, 2018).

How the values were obtained:
HeLa = assay: Cytotoxicity assay (SRB, 72 h) HeLa; format: cell-based, Human; conditions: Homo sapiens, HeLa, read-out: IC50 ± SD HeLa
HT29 = assay: Cytotoxicity assay (SRB, 72 h) HT29; format: cell-based, Human; conditions: Homo sapiens, HT-29, read-out: IC50 ± SD HT29
HepG2 = assay: Cytotoxicity assay (SRB, 72 h) HepG2; format: cell-based, Human; conditions: Homo sapiens, HepG2, read-out: IC50 ± SD HepG2
A2780 = assay: Cytotoxicity assay (SRB, 72 h) A2780; format: cell-based, Human; conditions: Homo sapiens, A2780, read-out: IC50 ± SD A2780
A2780-Dx = assay: Cytotoxicity assay (SRB, 72 h) A2780-Dx; format: cell-based, Human
[1] = tested on: series of human tumor cell lines; assay: Antiproliferative activity, series of human tumor cell lines (summary); format: cell-based; conditions: span over the cell line panel, 72 h, SRB assay, read-out: IC50 across the human tumor cell lines of Table 3
HDAC10 = HDAC10 (Homo sapiens, UniProt Q969S8); assay: HDAC profiling HDAC10; format: biochemical; conditions: purified isoform, 10 concentrations from 10 μM, triplicate
HDAC10, sequence (Q969S8 whole entry, canonical isoform): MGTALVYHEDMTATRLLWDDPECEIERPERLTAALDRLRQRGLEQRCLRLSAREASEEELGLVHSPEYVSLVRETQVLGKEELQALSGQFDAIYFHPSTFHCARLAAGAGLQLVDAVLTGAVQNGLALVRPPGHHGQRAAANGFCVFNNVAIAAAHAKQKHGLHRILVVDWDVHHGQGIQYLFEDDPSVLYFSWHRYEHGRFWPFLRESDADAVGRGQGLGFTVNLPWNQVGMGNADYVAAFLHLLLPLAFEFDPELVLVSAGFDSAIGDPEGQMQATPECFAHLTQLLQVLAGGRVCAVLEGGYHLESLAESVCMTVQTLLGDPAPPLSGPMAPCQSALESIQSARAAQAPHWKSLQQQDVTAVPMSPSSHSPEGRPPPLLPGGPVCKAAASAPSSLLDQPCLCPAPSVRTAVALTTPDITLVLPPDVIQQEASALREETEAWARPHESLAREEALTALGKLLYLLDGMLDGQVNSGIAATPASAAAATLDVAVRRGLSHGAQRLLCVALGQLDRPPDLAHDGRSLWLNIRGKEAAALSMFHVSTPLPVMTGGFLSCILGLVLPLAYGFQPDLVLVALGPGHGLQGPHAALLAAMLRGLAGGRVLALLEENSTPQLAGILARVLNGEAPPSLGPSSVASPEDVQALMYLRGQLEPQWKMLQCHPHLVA

MAVER-2 = assay: Cytotoxicity assay (MTT, 72 h) MAVER-2; format: cell-based, Human; conditions: Homo sapiens, read-out: IC50 ± SD MAVER-2
U-2932 = assay: Cytotoxicity assay (MTT, 72 h) U-2932; format: cell-based, Human; conditions: Homo sapiens, U2932, read-out: IC50 ± SD U-2932
L-428 = assay: Cytotoxicity assay (MTT, 72 h) L-428; format: cell-based, Human; conditions: Homo sapiens, L-428; 72 h, MTT assay; read-out: IC50 ± SD L-428
Method: (§1) Human tumor cells were seeded in 96-well cell culture plastic plates, allowed to attach, and exposed to scalar concentrations of the test compounds.

DG-75 = assay: Cytotoxicity assay (MTT, 72 h) DG-75; format: cell-based, Human; conditions: Homo sapiens, DG-75; 72 h, MTT assay; read-out: IC50 ± SD DG-75
ARH-77 = assay: Cytotoxicity assay (MTT, 72 h) ARH-77; format: cell-based; conditions: Homo sapiens, read-out: IC50 ± SD ARH-77
THP1 = assay: Cytotoxicity assay (MTT, 72 h) THP1; format: cell-based; conditions: Homo sapiens, THP-1, read-out: IC50 ± SD THP1
U937 = assay: Cytotoxicity assay (MTT, 72 h) U937; format: cell-based; conditions: Homo sapiens, U-937, read-out: IC50 ± SD U937
Z-138 = assay: Cytotoxicity assay (MTT, 72 h) Z-138; format: cell-based; conditions: Homo sapiens, read-out: IC50 ± SD Z-138
RPMI-8226 = assay: Cytotoxicity assay (MTT, 72 h) RPMI-8226; format: cell-based; conditions: Homo sapiens, read-out: IC50 ± SD RPMI-8226
Method: as §1

[2] = tested on: hematologic cancer cell lines; assay: Screening on hematologic cancer cell lines (summary); format: cell-based; conditions: Homo sapiens, read-out: IC50 across hematologic cancer cell lines (Tables 5 and 6); span over the cell line panel, 72 h, MTT assay
MM317 = assay: Cytotoxicity assay, primary mesothelioma MM317; format: cell-based, Human; conditions: Homo sapiens; epithelioid, 72 h, SBR assay; read-out: IC50 ± SD MM317
MM404 = assay: Cytotoxicity assay, primary mesothelioma MM404; format: cell-based, Human; conditions: Homo sapiens; epithelioid, 72 h, SBR assay; read-out: IC50 ± SD MM404
MM472 = assay: Cytotoxicity assay, primary mesothelioma MM472; format: cell-based, Human; conditions: Homo sapiens; sarcomatoid, 72 h, SBR assay; read-out: IC50 ± SD MM472
NCI-H460 NSCLC cells = assay: FACS analysis of cell cycle and apoptosis; format: cell-based, Human; conditions: 72 h at own IC80 dose, PI staining
Acetylated Histone H4 = assay: Western blot, acetylation of histone H4 in NCI-H460 cells; format: cell-based, Human; conditions: 24 h; SN38 0.05 μM, SAHA 5 μM, 3b and 3d 0.125–0.2–0.5 μM
Method: (§2) The supernatant, containing the total proteins extracts, were transferred in new vials. The protein concentration was measured by Bradford Protein Assay. Equal amounts of proteins for each sample were then resolved by SDS-PAGE and loaded on 10–12% polyacrilamide gels. The proteins were then transferred on nitrocellulose membranes. Molecular weights were estimated based upon the relative migration with molecular weight protein markers.
The non-specific binding was blocked by incubation of membranes in TBS-tween (25 mM Tris, 150 mM NaCl, 0.1% Tween 20) with 5% nonfat dry milk (BIORAD, Milan) for 60 minutes. Subsequently, the membrane was incubated overnight with primary antibodies: anti-Histone H4 (Millipore, 1:500), anti-acetyl-H4 (Santa Cruz, 1:1000) anti-p21 (Santa Cruz, 1:1000), anti-acetyl-tubulin (abcam, 1:1000), anti-α-tubulin (Sigma, 1:5000), anti β-actin (Sigma, 1:5000) and anti-Topoisomerase 1 (Santa Cruz, 1:500). After three washes with TBST blots were incubated with HRP-coniugated secondary anti-mouse and anti-rabbit (Santa Cruz, 1:5000) 1 hour at room temperature. After three washes with TBST the blots were developed with ECL substrate (GE Healthcare) and chemiluminescence detected by ChemiDoc Imaging System (Biorad). The optical density of the protein bands detected by western blotting was normalized on α -tubulin levels and analyzed by ChemiDoc software (Biorad). […]

H2A.X = assay: Western blot, H2A.X induction in NCI-H460 cells; format: cell-based, Human; conditions: 24 h; SAHA 5 μM, SN38 0.05 μM, 3d 0.125–0.2–0.5 μM
Method: as §2
(§3) The non-specific binding was blocked by incubation of membranes in TBS-tween (25 mM Tris, 150 mM NaCl, 0.1% Tween 20) with 5% nonfat dry milk (BIORAD, Milan) for 60 minutes. Subsequently, the membrane was incubated overnight with primary antibodies: anti-Histone H4 (Millipore, 1:500), anti-acetyl-H4 (Santa Cruz, 1:1000) anti-p21 (Santa Cruz, 1:1000), anti-acetyl-tubulin (abcam, 1:1000), anti-α-tubulin (Sigma, 1:5000), anti β-actin (Sigma, 1:5000) and anti-Topoisomerase 1 (Santa Cruz, 1:500). After three washes with TBST blots were incubated with HRP-coniugated secondary anti-mouse and anti-rabbit (Santa Cruz, 1:5000) 1 hour at room temperature. After three washes with TBST the blots were developed with ECL substrate (GE Healthcare) and chemiluminescence detected by ChemiDoc Imaging System (Biorad). The optical density of the protein bands detected by western blotting was normalized on α -tubulin levels and analyzed by ChemiDoc software (Biorad).
(§4) Cells were lysed in 0.5% NP-40 and 40 μg of total proteins were loaded on NuPAGE 4–12% (Invitrogen), transferred to a nitrocellulose paper and probed with specific antibodies.

p53 = assay: Western blot, p53 in NCI-H460 cells; format: cell-based, Human; conditions: 24 h; SAHA 5 μM, SN38 0.05 μM, 3d 0.125–0.2–0.5 μM
Method: as §2, §3, §4

[3] = mouse, in vivo, iv, 45 mg/kg
[4] = tested on: human epithelioid mesothelioma MM473-Luc; assay: In vivo antitumor activity, orthotopic MM473-Luc xenograft; conditions: i.v. 45 mg/kg, q4dx3w, treatment from day 15

Question: Which results are given for `CC[C@@]1(O)C(=O)OCc2c1cc1n(c2=O)Cc2c-1nc1ccc(O)cc1c2C=NOCCCCCC(=O)NO` [Compound 3d, 6-(10-hydroxycamptothecin-7-ylmethyleneaminooxy)-hexanoic acid hydroxyamide]?
Answer: IC50 (HeLa): 180 ± 50 nM; IC50 (HT29): 390 ± 100 nM; IC50 (HepG2): 110 ± 30 nM; IC50 (A2780): 270 ± 80 nM; RI (Resistance Index) (A2780-Dx; A2780-Dx versus A2780): 6.6; IC50 (A2780-Dx; Homo sapiens, A2780/DX, 72 h, SRB assay, multidrug-resistant ovarian carcinoma, read-out: IC50 ± SD A2780-Dx): 1800 ± 400 nM; IC50 [1]: 30 to 400 nM; IC50 (HDAC10): 224 nM; IC50 (MAVER-2): 12 ± 1 nM; IC50 (U-2932): 44 ± 10 nM; IC50 (L-428): 430 ± 70 nM; IC50 (DG-75): 1900 ± 200 nM; IC50 (ARH-77): 210 ± 60 nM; IC50 (THP1): 220 ± 90 nM; IC50 (U937): 180 ± 50 nM; IC50 (Z-138): 6 ± 1 nM; IC50 (RPMI-8226): 4100 ± 1400 nM; IC50 [2]: 6 to 4000 nM; IC50 (MM317): 850 ± 200 nM; IC50 (MM404): 1400 ± 300 nM; IC50 (MM472): 48 ± 10 nM; G0/1 (%) (NCI-H460 NSCLC cells): 12.1%; G2/M (%) (NCI-H460 NSCLC cells): 11.9%; S (%) (NCI-H460 NSCLC cells): 76.0%; Sub-G0/1 (%) (NCI-H460 NSCLC cells; apoptosis): 15.2%; accumulation of acetylated histone H4 (Acetylated Histone H4): H4 and tubulin acetylation in a dose dependent manner; H2A.X induction (DNA damage) (H2A.X): DNA damage at a dose corresponding to its IC80, confirmed by H2A.X induction; p53 activation (p53): induced p53 activation; body weight [3]: no reduction in body weight was observed; antitumor activity (BLI signal, average radiance) [4]: strong antitumor activity
